The text below walks through data of ChEMBL document CHEMBL3272218, “Biologically active derivatives of angiotensin for labeling cellular receptors” (J Med Chem, 1978).

Peptide text beside a SMILES is read from it. * marks the point of attachment. X2 = O=C(O)c1cc(NC(=S)*)ccc1-c1c2ccc(=O)cc-2oc2cc(O)ccc12; X1 = O=Cc1ccc(C(=O)*)cc1

The assay deals with T1, Type-1 angiotensin II receptor (Oryctolagus cuniculus) (UniProt P34976).
T1 sequence (whole entry): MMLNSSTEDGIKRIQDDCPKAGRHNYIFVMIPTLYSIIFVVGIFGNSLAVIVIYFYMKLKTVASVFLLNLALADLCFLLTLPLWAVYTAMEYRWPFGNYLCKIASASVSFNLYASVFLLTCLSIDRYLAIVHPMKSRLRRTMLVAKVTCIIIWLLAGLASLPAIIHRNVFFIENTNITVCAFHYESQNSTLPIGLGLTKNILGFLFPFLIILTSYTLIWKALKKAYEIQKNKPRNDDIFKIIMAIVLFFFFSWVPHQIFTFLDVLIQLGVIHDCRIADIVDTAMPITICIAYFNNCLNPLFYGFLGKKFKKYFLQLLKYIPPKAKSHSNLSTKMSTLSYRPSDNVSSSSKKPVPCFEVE
Briefly: Relative binding affinity of the compound assessed as ratio of [Asp1,Ile5]angiotensin II ED50 to compound ED50 for angiotensin 2 receptor in rabbit aortic strips.
In the case of `CC[C@H](C)[C@H](NC(=O)[C@H](Cc1ccc(O)cc1)NC(=O)[C@@H](N)C(C)C)C(=O)N[C@@H](Cc1cnc[nH]1)C(=O)N1CCC[C@H]1C(=O)N[C@@H](Cc1ccccc1)C(=O)O`, the relative binding affinity (RBA) was 0.03.
Regarding `CC[C@H](C)[C@H](NC(=O)[C@H](Cc1ccc(O)cc1)NC(=O)[C@@H](NC(=O)[C@@H](N)CCCN=C(N)N)C(C)C)C(=O)N[C@@H](Cc1c[nH]cn1)C(=O)N1CCC[C@H]1C(=O)N[C@@H](Cc1ccccc1)C(=O)O`, the relative binding affinity (RBA) came out at 2.
Turning to `CC(C)[C@H](NC(=O)[C@H](CCCNC(=N)N)NC(=O)[C@H](CC(N)=O)NC(=S)Nc1ccc(-c2c3ccc(=O)cc-3oc3cc(O)ccc23)c(C(=O)O)c1)C(=O)N[C@@H](Cc1ccc(O)cc1)C(=O)N[C@H](C(=O)N[C@@H](Cc1cnc[nH]1)C(=O)N1CCC[C@H]1C(=O)N[C@@H](Cc1ccccc1)C(=O)O)C(C)C` (X2-NRVYVHPF-OH), the relative binding affinity (RBA) worked out at 1.
As to `CC(C)[C@H](NC(=O)[C@H](CCCNC(=N)N)NC(=O)[C@@H](N)CC(N)=O)C(=O)N[C@@H](Cc1ccc(O)cc1)C(=O)N[C@H](C(=O)N[C@@H](Cc1c[nH]cn1)C(=O)N1CCC[C@H]1C(=O)N[C@@H](Cc1ccccc1)C(=O)O)C(C)C` (H-NRVYVHPF-OH), the relative binding affinity (RBA) stood at 23.
On to `CCCC[C@H](NC(=O)c1cc(N=[N+]=[N-])ccc1[N+](=O)[O-])C(=O)N[C@@H](CC(=O)O)C(=O)N[C@@H](CCCNC(=N)N)C(=O)N[C@H](C(=O)N[C@@H](Cc1ccc(O)cc1)C(=O)N[C@H](C(=O)N[C@@H](Cc1cnc[nH]1)C(=O)N1CCC[C@H]1C(=O)N[C@@H](Cc1ccccc1)C(=O)O)[C@@H](C)CC)C(C)C`, for which the relative binding affinity (RBA) came to 0.5.
Consider `CC(C)[C@H](NC(=O)[C@H](CCCNC(=N)N)NC(=O)[C@H](CC(N)=O)NC(=O)c1ccc(C=O)cc1)C(=O)N[C@@H](Cc1ccc(O)cc1)C(=O)N[C@H](C(=O)N[C@@H](Cc1cnc[nH]1)C(=O)N1CCC[C@H]1C(=O)N[C@@H](Cc1ccccc1)C(=O)O)C(C)C` (X1-NRVYVHPF-OH), for which the relative binding affinity (RBA) came to 8.
For the compound `CC[C@H](C)[C@H](NC(=O)[C@H](Cc1ccc(O)cc1)NC(=O)[C@@H](NC(=O)[C@H](CCCNC(=N)N)NC(=O)[C@H](CC(=O)O)N1C=C(c2ccccc2)C(=O)C1(O)c1ccccc1)C(C)C)C(=O)N[C@@H](Cc1cnc[nH]1)C(=O)N1CCC[C@H]1C(=O)N[C@@H](Cc1ccccc1)C(=O)O` (some centres not stated), the relative binding affinity (RBA) was 3.
